Counter-ions that a name gives are not always drawn.
Target: T1, LCAT (Homo sapiens, UniProt P04180)
T1 construct: The obtained fraction was dialyzed against phosphate-buffered saline (pH 7.4) and used as an enzyme source and an acceptor for LCAT; from tissue; host or cells: HDL3 fraction (1.125<specific gravity<1.210 g/mL) of plasma from a healthy person
T1 sequence (P04180 25-440): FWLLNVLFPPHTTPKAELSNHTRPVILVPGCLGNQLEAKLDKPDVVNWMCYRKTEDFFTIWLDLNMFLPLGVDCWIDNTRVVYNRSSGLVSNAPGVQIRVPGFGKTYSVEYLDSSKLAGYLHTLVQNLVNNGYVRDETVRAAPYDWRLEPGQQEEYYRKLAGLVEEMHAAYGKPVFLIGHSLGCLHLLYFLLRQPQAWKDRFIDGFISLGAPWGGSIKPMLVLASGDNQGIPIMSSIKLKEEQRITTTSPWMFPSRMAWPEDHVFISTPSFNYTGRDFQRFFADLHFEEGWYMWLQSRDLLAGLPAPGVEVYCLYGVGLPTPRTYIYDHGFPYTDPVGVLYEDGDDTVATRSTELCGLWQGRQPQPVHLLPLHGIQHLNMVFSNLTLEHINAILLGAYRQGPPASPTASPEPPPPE
Assay: LCAT Activity Measurement (In Vitro)
Assay type: biochemical
Settings: EC50 of LCAT activation; HDL3 fraction from plasma of a healthy person as enzyme source and acceptor; [14C]cholesterol; 37° C., approximately 16 hours
Procedure: A fraction composed of HDL3 (1.125<specific gravity<1.210 g/mL) was obtained from the plasma of a healthy person by density gradient centrifugation. The obtained fraction was dialyzed against phosphate-buffered saline (pH 7.4) and used as an enzyme source and an acceptor for LCAT. Each test drug was prepared by dissolution in dimethyl sulfoxide. [14C]Cholesterol containing DTNB (Ellman's reagent, final concentration: 0.5 mM), mercaptoethanol (final concentration: 12.5 mM), and 0.6% bovine serum albumin was added to phosphate-buffered saline (pH 7.4) containing 1 mg/mL HDL3, and the test drug was further added thereto at varying concentrations to adjust the whole amount to 80 μL. This mixture was incubated at 37° C. for approximately 16 hours. Then, a mixed solution of hexane and isopropanol (mixing ratio=3:2) was added thereto to stop the reaction. After stirring, the hexane layer was collected, and this layer was evaporated to dryness. A chloroform solution (concentration: 10 mg/mL) was added thereto, and the mixture was spotted onto a thin-layer silica gel plate and developed using a mixed solution of hexane, diethyl ether, and ethyl acetate (mixing ratio=85:15:2). The radioactivity of a portion corresponding to cholesterol oleate was measured using an imaging analyzer BAS-2500 (manufactured by Fujifilm Corp.). A sample non-supplemented with the test drug was similarly treated and assayed. The EC50 value of LCAT activation was calculated according to the expression given below relative to LCAT activity in the sample non-supplemented with the test drug.
wherein X represents the logarithm of the concentration of the test drug;
Y represents the responsiveness (LCAT activity) of the test drug;
Top represents the maximum value (maximum plateau);
Bottom represents the minimum value (minimum plateau); and
EC50 represents the 50% effective concentration.

SMILES	EC50 [nM]
CN(C)c1cc(N2CCC(c3n[nH]c4c3C(O)(C(F)(F)F)CC(=O)N4)CC2)nc(C(F)(F)F)n1 (stereo not drawn) [Example 86, 3-{1-[6-(Dimethylamino)-2-(trifluoromethyl)pyrimidin-4-yl]piperidin-4-yl}-4-hydroxy-4-(trifluoromethyl)-1,4,5,7-tetrahydro-6H-pyrazolo[3,4-b]pyridin-6-one]	140
O=C1CC(O)(C(F)(F)F)c2c(C3CCN(c4ccc5ccccc5n4)CC3)n[nH]c2N1 (stereo not drawn) [Example 16, 4-Hydroxy-3-[1-(quinolin-2-yl)piperidin-4-yl]-4-(trifluoromethyl)-1,4,5,7-tetrahydro-6H-pyrazolo[3,4-b]pyridin-6-one]	96
O=C1CC(O)(C(F)(F)F)c2c(C3CCN(c4cc(C(F)(F)F)nc(C5CC5)n4)CC3)n[nH]c2N1 (stereo not drawn) [Example 92, 3-{1-[2-Cyclopropyl-6-(trifluoromethyl)pyrimidin-4-yl]piperidin-4-yl}-4-hydroxy-4-(trifluoromethyl)-1,4,5,7-tetrahydro-6H-pyrazolo[3,4-b]pyridin-6-one]	210
COc1ccnc(N2CCC(c3n[nH]c4c3C(O)(C(F)(F)F)CC(=O)N4)CC2)n1 (stereo not drawn) [Example 30, 4-Hydro-3-[1-(4-methoxypyrimidin-2-yl)piperidin-4-yl]-4-(trifluoromethyl)-1,4,5,7-tetrahydro-6H-pyrazolo[3,4-b]pyridin-6-one]	2460
O=C1CC(O)(C(F)(F)F)c2c(C3CCN(c4ccc(OC(F)(F)F)cc4)CC3)n[nH]c2N1 (stereo not drawn) [Example 58, 4-Hydroxy-3-{1-[4-(trifluoromethoxy)phenyl]piperidin-4-yl}-4-(trifluoromethyl)-1,4,5,7-tetrahydro-6H-pyrazolo[3,4-b]pyridin-6-one]	20
N#Cc1ccc(N2CCC(c3n[nH]c4c3C(O)(C(F)(F)F)CC(=O)N4)CC2)nc1 (stereo not drawn) [Example 31, 6-{4-[4-Hydroxy-6-oxo-4-(trifluoromethyl)-4,5,6,7-tetrahydro-1H-pyrazolo[3,4-b]pyridin-3-yl]piperidin-1-yl}pyridine-3-carbonitrile]	330
O=C1CC(O)(C(F)(F)F)c2c(C3CCN(c4cnc(C5CC5)nc4)CC3)n[nH]c2N1 (stereo not drawn) [Example 66, 3-[1-(2-Cyclopropylpyrimidin-5-yl)piperidin-4-yl]-4-hydroxy-4-(trifluoromethyl)-1,4,5,7-tetrahydro-6H-pyrazolo[3,4-b]pyridin-6-one]	68
N#Cc1ccnc(N2CCC(c3n[nH]c4c3C(O)(C(F)(F)F)CC(=O)N4)CC2)c1 (stereo not drawn) [Example 33, 2-{4-[4-Hydroxy-6-oxo-4-(trifluoromethyl)-4,5,6,7-tetrahydro-1H-pyrazolo[3,4-b]pyridin-3-yl]piperidin-1-yl}pyridine-4-carbonitrile]	56
CC(C)c1nc(N2CCC(c3n[nH]c4c3C(O)(C(F)(F)F)CC(=O)N4)CC2)cc(C(F)(F)F)n1 (stereo not drawn) [Example 88, 4-Hydroxy-3-{1-[2-(propan-2-yl)-6-(trifluoromethyl)pyrimidin-4-yl]piperidin-4-yl}-4-(trifluoromethyl)-1,4,5,7-tetrahydro-6H-pyrazolo[3,4-b]pyridin-6-one]	88
COc1ccc(N2CCC(c3n[nH]c4c3C(O)(C(F)(F)F)CC(=O)N4)CC2)nc1 (stereo not drawn) [Example 36, 4-Hydroxy-3-[1-(5-methoxypyridin-2-yl)piperidin-4-yl]-4-(trifluoromethyl)-1,4,5,7-tetrahydro-6H-pyrazolo[3,4-b]pyridin-6-one]	420
O=C1CC(O)(C(F)(F)F)c2c(C3CCN(c4cnc(OC(F)F)c(OC(F)F)c4)CC3)n[nH]c2N1 (stereo not drawn) [Example 63, 3-{1-[5,6-bis(Difluoromethoxy)pyridin-3-yl]piperidin-4-yl}-4-hydroxy-4-(trifluoromethyl)-1,4,5,7-tetrahydro-6H-pyrazolo[3,4-b]pyridin-6-one]	31
CN(C)C(=O)c1cc(N2CCC(c3n[nH]c4c3C(O)(C(F)(F)F)CC(=O)N4)CC2)ncc1C(F)(F)F (stereo not drawn) [Example 84, 2-{4-[4-Hydroxy-6-oxo-4-(trifluoromethyl)-4,5,6,7-tetrahydro-1H-pyrazolo[3,4-b]pyridin-3-yl]piperidin-1-yl}-N,N-dimethyl-5-(trifluoromethyl)pyridine-4-carboxamide]	270
Cc1ccnc(N2CCC(c3n[nH]c4c3C(O)(C(F)(F)F)CC(=O)N4)CC2)c1 (stereo not drawn) [Example 5, 4-Hydroxy-3-[1-(4-methylpyridin-2-yl)piperidin-4-yl]-4-(trifluoromethyl)-1,4,5,7-tetrahydro-6H-pyrazolo[3,4-b]pyridin-6-one]	290
Cc1nc(N2CCC(c3n[nH]c4c3C(O)(C(F)(F)F)CC(=O)N4)CC2)ccc1C#N (stereo not drawn) [Example 20, 6-{4-[4-Hydroxy-6-oxo-4-(trifluoromethyl)-4,5,6,7-tetrahydro-1H-pyrazolo[3,4-b]pyridin-3-yl]piperidin-1-yl}-2-methylpyridine-3-carbonitrile]	290
COc1cncc(N2CCC(c3n[nH]c4c3C(O)(C(F)(F)F)CC(=O)N4)CC2)c1 (stereo not drawn) [Example 40, 4-Hydroxy-3-[1-(5-methoxypyridin-3-yl)piperidin-4-yl]-4-(trifluoromethyl)-1,4,5,7-tetrahydro-6H-pyrazolo[3,4-b]pyridin-6-one]	1710
CN(C)c1ccc(N2CCC(c3n[nH]c4c3C(O)(C(F)(F)F)CC(=O)N4)CC2)cn1 (stereo not drawn) [Example 68, 3-{1-[6-(Dimethylamino)pyridin-3-yl]piperidin-4-yl}-4-hydroxy-4-(trifluoromethyl)-1,4,5,7-tetrahydro-6H-pyrazolo[3,4-b]pyridin-6-one]	760
O=C1CC(O)(C(F)(F)F)c2c(C3CCN(c4ccc(OC(F)F)cc4)CC3)n[nH]c2N1 (single isomer, unassigned; (+)) [Compound 56-2, (+)-3-{1-[4-(difluoromethoxy)phenyl]piperidin-4-yl}-4-hydroxy-4-(trifluoromethyl)-1,4,5,7-tetrahydro-6H-pyrazolo[3,4-b]pyridin-6-one]	980
O=C1CC(O)(C(F)(F)F)c2c(C3CCN(c4nc(C5CC5)no4)CC3)n[nH]c2N1 (stereo not drawn) [Example 71, 3-[1-(3-Cyclopropyl-1,2,4-oxadiazol-5-yl)piperidin-4-yl]-4-hydroxy-4-(trifluoromethyl)-1,4,5,7-tetrahydro-6H-pyrazolo[3,4-b]pyridin-6-one]	520
O=C1CC(O)(C(F)(F)F)c2c(C3CCN(c4nc5ccccc5s4)CC3)n[nH]c2N1 (stereo not drawn) [Example 25, 3-[1-(1,3-Benzothiazol-2-yl)piperidin-4-yl]-4-hydroxy-4-(trifluoromethyl)-1,4,5,7-tetrahydro-6H-pyrazolo[3,4-b]pyridin-6-one]	200
O=C1CC(O)(C(F)(F)F)c2c(C3CCN(c4ncc(-c5ccccc5)s4)CC3)n[nH]c2N1 (stereo not drawn) [Example 89, 4-Hydroxy-3-[1-(5-phenyl-1,3-thiazol-2-yl)piperidin-4-yl]-4-(trifluoromethyl)-1,4,5,7-tetrahydro-6H-pyrazolo[3,4-b]pyridin-6-one]	110
CC(C)Oc1ccc(N2CCC(c3n[nH]c4c3C(O)(C(F)(F)F)CC(=O)N4)CC2)nn1 (stereo not drawn) [Example 18, 4-Hydroxy-3-{1-[6-(propan-2-yloxy)pyridazin-3-yl]piperidin-4-yl}-4-(trifluoromethyl)-1,4,5,7-tetrahydro-6H-pyrazolo[3,4-b]pyridin-6-one hydrochloride]	101
CN(C)C(=O)c1nc(N2CCC(c3n[nH]c4c3C(O)(C(F)(F)F)CC(=O)N4)CC2)ccc1C(F)(F)F (stereo not drawn) [Example 83, 6-{4-[4-Hydroxy-6-oxo-4-(trifluoromethyl)-4,5,6,7-tetrahydro-1H-pyrazolo[3,4-b]pyridin-3-yl]piperidin-1-yl}-N,N-dimethyl-3-(trifluoromethyl)pyridine-2-carboxamide]	420
O=C1CC(O)(C(F)(F)F)c2c(C3CCN(c4cccnc4)CC3)n[nH]c2N1 (stereo not drawn) [Example 27, 4-Hydroxy-3-[1-(pyridin-3-yl)piperidin-4-yl]-4-(trifluoromethyl)-1,4,5,7-tetrahydro-6H-pyrazolo[3,4-b]pyridin-6-one]	2410
CC(C)Oc1ccc(N2CCC(c3n[nH]c4c3C(O)(C(F)(F)F)CC(=O)N4)CC2)nn1 (stereo not drawn) [Example 17, 4-Hydroxy-3-{1-[6-(propan-2-yloxy)pyridazin-3-yl]piperidin-4-yl}-4-(trifluoromethyl)-1,4,5,7-tetrahydro-6H-pyrazolo[3,4-b]pyridin-6-one]	64

Reference: patent publication US9150575B2, “Piperidinylpyrazolopyridine derivative” (Daiichi Sankyo Company, Limited, priority 2012, dated 2015)
